Laboratory results published in patent publication US20040259934A1, “Inhibiting Coronaviridae viral replication and treating Coronaviridae viral infection with nucleoside compounds” (priority 2003, published 2004).

Tests used:
[1] = tested on: Human coronavirus OC43; test: Neutral red uptake assay against a coronavirus; assay type: cell-based; conditions: Betacoronavirus 1, OC43 / SC1, BSC-1
Method: (§1) The assays employed to measure activity against coronavirus are described below (wherein CPE=cytopathic effect; FBS=fetal bovine serum; MEM=minimal essential medium; MOI=multiplicity of infection; and NR=neutral red):
(§2) Human coronavirus OC43 was obtained from the American Type Culture Collection (ATCC, Manassas, Va., USA). This virus was originally isolated from the tracheal washings of a person with cold-like symptoms.
(§3) B-SC-1 cells propagated from adult African green kidney cells were grown in MEM supplemented with 0.1% NaHCO3 and 10% FBS. When performing antiviral assays, serum was reduced to 2% and 50 μg/mL gentamicin was added to the medium.
After performing the CPE inhibition assay above, an additional cytopathic detection method was used, in which medium was removed from each well of a plate scored for CPE from a CPE inhibition assay, 0.034% NR was added to each well of the plate and the plate incubated for 2 hr at 37° C. in the dark. The NR solution was then removed from the wells. After rinsing and aspirating to dryness, the remaining dye was extracted for 30 min at room temperature in the dark from the cells using absolute ethanol buffered with Sörenson citrate buffer. […] Absorbances at 540 nm and 450 nm were read with a microplate reader (Bio-Tek EL 1309; Bio-Tek Instruments, Inc., Winooski, Vt.). Absorbance values were expressed as percentages of untreated controls and EC50 and IC50 values were calculated by regression analysis.

[2] = tested on: Human coronavirus OC43; test: Cytopathic effect (CPE) inhibition assay against a coronavirus; assay type: cell-based; conditions: Betacoronavirus 1, OC43 / SC1, BSC-1, 144 h
Method: as §1, §2, §3
Each compound was diluted in MEM using a four log dilution series (i.e., 100, 10, 1.0, 0.1 μg/ml) and 100 μL added to the appropriate wells of a 96 well cell culture plate with confluent cells (see plate format below). The coronavirus was diluted in MEM 2% FBS to an MOI=0.001 in a volume of 100 μL and added immediately to plate (usually within 5 minutes of drug addition). […] The plates were then scored for virus cytopathic effect at each dilution of compound tested. The 50% effective concentration (EC50) was calculated by regression analysis using the means of the CPE ratings at each concentration of compound.

Row | Structure (SMILES) | EC50 [1] | EC50 [2]
1 | C[C@@]1(O)[C@H](O)[C@@H](CO)O[C@H]1n1ccc(N)nc1=O [2′-C-methylcytidine] | ≤ 10 µM | < 100 µM
2 | C[C@@]1(O)[C@H](O)[C@@H](CO)O[C@H]1n1cnc2c(N)ncnc21 [2′-C-methyladenosine] | ≤ 10 µM | < 100 µM
3 | C[C@@]1(O)[C@H](O)[C@@H](CO)O[C@H]1n1ccc2c(N)ncnc21 [Example 1, 4-Amino-7-(2-C-methyl-β-D-ribofuranosyl)-7H-pyrrolo[2,3-d]pyrimidine] | ≤ 10 µM | < 100 µM
